Laboratory results from paper PMC12948223, “HSP70 Interactome‐Mediated Proteolysis Targeting Chimera (HSP70‐PROTAC) for Ferroptosis‐Driven Cancer Treatment” (Advanced Science, 2025).

Tests used:
GPX4 mRNA = experiment: Real-time qRT-PCR of GPX4 mRNA in HT1080 cells; format: cell-based, human; details: HT1080 cells, 0.1, 0.3, 1 and 3 µM, 24 h
Protocol: Real‐time qRT‐PCR was used to determine the mRNA expression level of GPX4 gene in HT1080 cells. In brief, HT1080 cells were seeded in 6‐well plates at a density of 4.5 × 10^5 cells per well and allowed to adhere overnight. Subsequently, the cells were exposed to different concentrations of the test compound GDAz‐3 for 24 h. Total RNA from the various cell samples was extracted using an RNA‐Quick Purification Kit (#RC112, Vazyme, Nanjing, China) according to the manufacturer's instructions. The concentrations of the isolated RNA samples were determined using NanoDrop. A total of 2 µg RNA was used to synthesize cDNA using Fast‐All‐in‐One RT Kit (#RT001, ES Science, Shanghai) following the manufacturer's guidelines. Real‐time PCR was performed using 2xSuper SYBR Green QPCR Master Mix (#QP002, ES Science, Shanghai) and determined using a CFX96 PCR instrument with the following cycling conditions: 95 °C for 5 min, 95 °C for 10 s, and 60 °C for 30 s, 40 cycles. The data were analyzed by Bio‐Rad CFX Manager Software version 3.1. The primers used in this experiment were as follows: […]

GPX4 = biological target: T1, GPX4 (Homo sapiens, UniProt P36969); experiment: Quantitative proteomics of HT1080 cells; format: cell-based; set-up: determine the changes in the endogenous levels of GPX4 by western blot assay; endogenous in cells; host or cells: HT1080 fibrosarcoma cells, including siRNA-knockdown derivatives; details: 2 µM, 18 h
T1 sequence (P36969 1-170 isoform P36969-2): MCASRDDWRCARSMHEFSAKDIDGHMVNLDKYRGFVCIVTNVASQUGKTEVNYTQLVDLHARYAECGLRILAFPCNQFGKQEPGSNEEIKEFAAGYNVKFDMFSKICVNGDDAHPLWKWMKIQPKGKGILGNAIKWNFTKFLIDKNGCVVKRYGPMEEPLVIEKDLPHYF
Protocol: The proteomics data were generated by Shanghai Bioprofile Co., Ltd. After treatment with compound GDAz‐3 (2 µM) or DMSO for 18 h, the samples were collected. LC‐MS/MS analysis was conducted using an Orbitrap Astral zoom mass spectrometer paired with a Vanquish Neo UHPLC system (Thermo Fisher Scientific). Peptides from each sample were loaded into a column (50 cm Low‐Load µPAC Neo HPLC Column, Thermo Scientific) at a flow rate of 2.2 µL min^−1. The reversed‐phase high‐performance liquid chromatography (RP‐HPLC) mobile phases consisted of solvent A (0.1% formic acid in water) and solvent B (0.1% formic acid in 80% acetonitrile). Peptide elution was performed over 4.8 min with a linear gradient of buffer B at a flow rate 1.25 µL min^−1. The linear gradient was programmed as follows: 0–0.1 min, an increase from 4% to 6% solvent B; 0.1–1.1 min, from 6% to 12% buffer B; 1.1–4.3 min, from 12% to 25% buffer B; 4.3–6.1 min, from 25% to 45% buffer B; 6.1–6.5 min, from 45% to 99% buffer B; 6.5–8 min, buffer B maintained at 99%. The eluted peptides were subsequently analyzed on a Orbitrap Astral mass spectrometer. The DIA method consisted of a full scan m/z range of 380–980 at resolution 240 000 with AGC target of 500% and 5 ms injection time. […] Full MS scan spectra were recorded in profile mode, whereas DIA scan spectra were collected in centroid mode.

[1] = biological target: T2, Hsc70 in the presence of GPX4 protein (Homo sapiens, UniProt P11142+P36969); experiment: SPR ternary-complex binding (GDAz-3 preincubated with GPX4, Hsc70 immobilized)
T2 construct: purchased MedChemExpress (Hsc70); Cayman (GPX4) HY-P73915A; 26 906
T2 sequence (P11142 whole entry, one chain of several): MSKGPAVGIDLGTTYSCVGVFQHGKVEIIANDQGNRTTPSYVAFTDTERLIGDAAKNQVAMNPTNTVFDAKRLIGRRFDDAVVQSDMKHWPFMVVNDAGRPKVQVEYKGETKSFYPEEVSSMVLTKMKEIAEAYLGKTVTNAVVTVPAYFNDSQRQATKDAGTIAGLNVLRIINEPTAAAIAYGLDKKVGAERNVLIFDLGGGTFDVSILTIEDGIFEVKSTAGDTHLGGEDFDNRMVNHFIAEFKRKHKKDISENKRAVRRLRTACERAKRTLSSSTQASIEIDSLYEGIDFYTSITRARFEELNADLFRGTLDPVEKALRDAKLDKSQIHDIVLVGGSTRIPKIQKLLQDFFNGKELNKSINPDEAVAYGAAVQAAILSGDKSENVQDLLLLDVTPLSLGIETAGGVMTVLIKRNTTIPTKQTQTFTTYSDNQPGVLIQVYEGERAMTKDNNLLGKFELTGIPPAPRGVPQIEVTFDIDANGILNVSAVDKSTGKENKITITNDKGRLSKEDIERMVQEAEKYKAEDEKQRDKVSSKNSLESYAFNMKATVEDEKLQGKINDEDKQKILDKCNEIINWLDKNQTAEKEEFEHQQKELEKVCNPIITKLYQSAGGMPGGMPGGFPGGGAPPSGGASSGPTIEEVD
Protocol: The SPR data was generated by our Shared Instrumentation Core Facility at the Hangzhou Institute of Medicine (HIM), Chinese Academy of Sciences. The in vitro binding affinity of compound GDAz‐3 to recombinant proteins (Hsc70, MedChemExpress, #HY‐P73915A; GPX4, Cayman, Item No. 26 906) was evaluated using a Biacore 8K system (Cytiva (GE)) with the method of LMW multi‐cycle kinetics/affinity. Pipelines and chips were flushed with PBS (pH 7.4) running buffer, and then, human Hsc70 was immobilized on a CM5 sensor chip. Analysis was performed at a flow rate of 30 µL min^−1 at 25 °C with the injection of incremental concentrations of compounds dissolved in buffer solution (the final concentration of DMSO was 5%). For ternary‐complex binding measurements, Hsc70 was immobilized on a CM5 sensor chip, and compound GDAz‐3 at a concentration of 1 µM was preincubated with GPX4. The binding and dissociation durations were recorded as response unit values for 120 and 120 s in succession, respectively. Finally, the data were analyzed by Biacore evaluation software with the method of LMW multi‐cycle kinetics/affinity.

intracellular ROS = experiment: Intracellular ROS (DCFH-DA, CLSM) in HT1080 cells; format: cell-based, human; details: 1 µM, 24 h
Protocol: To assess the total intracellular levels of reactive oxygen species (ROS), a DCFH‐DA (Dichloro‐dihydro‐fluorescein diacetate) assay kit was utilized. Briefly, HT1080 cells were seeded into confocal laser culture dishes and allowed to adhere for 24 h. Afterward, the cells were treated with GDAz‐3 at a concentration of 1 µM for 24 h. Subsequently, a DCFH‐DA probe was added to the cells and they were incubated for 20 min. After washing twice with PBS, the cells were visualized and imaged using a confocal laser scanning microscopy (CLSM).

MDA = MDA content in HT1080 cells; format: cell-based, human; details: HT1080 cells, 0.1, 0.5 and 1 µM, 24 h
Protocol: HT1080 cells were seeded into 10‐cm diameter culture dishes at a density of 2 × 10⁶ cells overnight and then exposed to GDAz‐3 (0.1, 0.5, and 1 µM). The cells were cultured for another 24 h, and the culture medium was discarded, washed with PBS, and lysed using IP lysis buffer (Servicebio, G2038). After lysis, the samples were centrifuged at 12 000 × g for 15 min at 4 °C. The supernatant was collected, and the MDA content was determined according to the instructions of the Lipid Peroxidation MDA Assay Kit (Beyotime Biotechnology, S00131S).

SLC7A11 = experiment: Western blot of SLC7A11 in HT1080 cells; format: cell-based, human; details: 24 h

COc1ccc(-c2nc(-c3cc(C(F)(F)F)cc(C(F)(F)F)c3)n(Cc3ccc(C(=O)NCCOCCOCCOCCn4cc(COc5ccc(N(C(=O)CCl)C(C(=O)NCCc6ccccc6)c6cccs6)cc5Cl)nn4)cc3)c2-c2ccc(OC)cc2)cc1 (stereo not shown) [GDAz-3, 4-((2-(3,5-bis(trifluoromethyl)phenyl)-4,5-bis(4-methoxyphenyl)-1H-imidazol-1-yl)methyl)-N-(2-(2-(2-(2-(4-((2-chloro-4-(2-chloro-N-(2-oxo-2-(phenethylamino)-1-(thiophen-2-yl)ethyl)acetamido)phenoxy)methyl)-1H-1,2,3-triazol-1-yl)ethoxy)ethoxy)ethoxy)ethyl)benzamide]
Level of GPX4 mRNA (GPX4 mRNA): did not significantly affect | Proteomics profiling, GPX4 abundance (GPX4): clear degradation of GPX4 | Kd ([1]; SPR, 1 µM GDAz-3 preincubated with GPX4, immobilized Hsc70): 23.9 nM | Cooperativity (α) ([1]; ternary complex Hsc70/GDAz-3/GPX4): 0.75 | Level of intracellular ROS (intracellular ROS): enhanced | Content of MDA (MDA): increased | Effect on SLC7A11 protein (SLC7A11): did not show a significant effect
